Experimental findings from publication PMC3190963 (Journal of structural biology, 2011) are described below.

In this experiment the target is human UPP1 (hUPP1) (Homo sapiens, UniProt Q16831). The experiment in a line: absorbance change at […] nm, uridine to uracil. It counts as biochemical. Particulars: uridine and inorganic phosphate; reference for hUPP2 activity.
human UPP1 (hUPP1), sequence (Q16831 whole entry): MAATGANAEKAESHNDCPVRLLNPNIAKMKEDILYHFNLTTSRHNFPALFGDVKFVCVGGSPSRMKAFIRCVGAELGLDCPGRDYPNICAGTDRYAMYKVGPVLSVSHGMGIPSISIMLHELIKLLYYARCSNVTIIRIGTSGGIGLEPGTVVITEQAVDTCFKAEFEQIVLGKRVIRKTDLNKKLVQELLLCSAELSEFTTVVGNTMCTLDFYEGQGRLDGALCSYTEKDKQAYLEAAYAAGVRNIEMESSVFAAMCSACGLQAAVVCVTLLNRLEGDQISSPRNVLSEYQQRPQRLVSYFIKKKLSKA

Consider `O=c1ccn([C@@H]2O[C@H](CO)[C@@H](O)[C@H]2O)c(=O)[nH]1` [uridine], for which the “absorbance change at 280 nm, uridine to uracil” value was “in vitro activity of recombinant hUPP2 and hUPP1 was compared”.
